According to US12150940B2, “WASp-protecting small molecules, compositions, methods and uses thereof in the treatment of innate and acquired immune-related disorders or conditions” (BAR ILAN UNIVERSITY, priority 2016, dated 2024):
Peptide text beside a SMILES is read from it. * marks the point of attachment. Cbz = O=C(OCc1ccccc1)*

What was measured:
WASp = molecular target: T1, WASp (Homo sapiens, UniProt P42768); test: WASp expression in TRAP-6-activated platelets (western blot); assay type: cell-based
T1 construct: endogenous in cells; host or cells: primary human platelets from healthy donors
T1 sequence (P42768 1-502): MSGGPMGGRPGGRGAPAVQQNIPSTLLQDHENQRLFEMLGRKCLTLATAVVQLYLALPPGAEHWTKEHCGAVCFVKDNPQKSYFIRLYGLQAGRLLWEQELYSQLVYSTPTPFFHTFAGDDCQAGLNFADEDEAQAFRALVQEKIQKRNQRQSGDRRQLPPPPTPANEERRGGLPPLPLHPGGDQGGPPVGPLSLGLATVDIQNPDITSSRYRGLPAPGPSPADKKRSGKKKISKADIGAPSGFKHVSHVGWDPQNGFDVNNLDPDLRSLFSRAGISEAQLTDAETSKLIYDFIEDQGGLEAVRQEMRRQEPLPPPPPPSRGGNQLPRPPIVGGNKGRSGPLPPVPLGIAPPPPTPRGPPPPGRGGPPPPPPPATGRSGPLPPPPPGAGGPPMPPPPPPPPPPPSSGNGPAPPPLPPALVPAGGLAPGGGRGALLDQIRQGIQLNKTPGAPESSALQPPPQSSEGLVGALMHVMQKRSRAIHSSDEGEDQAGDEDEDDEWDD
Method: FIG. 4A-4B. Freshly-isolated platelets were incubated with SMC #6 or control at 37° C. for the indicated times. The platelets were either stimulated (+) with TRAP-6 (10 μM) or left unstimulated (−), followed by lysis. Lysates were analyzed for WASp expression by immunoblotting with anti-WASp and anti-GAPDH as loading control (FIG. 4A). Relative WASp expression was determined by densitometric analysis and is presented in a summarizing graph of FIG. 4B. Error bars represent the SE from the mean. P values are presented and were calculated by two-tailed Student's t-test. Data are representative of three independent experiments.
Jurkat T-cells (FIG. 5A) or Freshly-isolated PBMCs (FIG. 5B) were incubated for 15 min at 37° C. with either control or the indicated WASp-binding SMCs, followed by co-stimulation with anti-CD3 and anti-CD28 and lysis. Freshly-isolated platelets were incubated for 15 min at 37° C. with either control or the indicated WASp-binding SMCs, followed by stimulation with TRAP-6 (10 μM) and lysis (FIG. 5C). Lysates were analyzed for WASp expression by immunoblotting with anti-WASp and anti-GAPDH as loading control. Western blot is representative of three independent experiments. […] Relative WASp expression was determined by densitometric analysis. […]
FIG. 6A-6D. […] Lysates were analyzed for WASp expression by immunoblotting with anti-WASp and anti-GAPDH as loading control (FIG. 6A). […]

WAS−/− Jurkat T-cells = test: Lymphocyte migration on ICAM-1/SDF-1α, WAS−/− cells; assay type: cell-based, human
Method: WASp knockout Jurkat T-cell lines that express only exogenous YFP-WASp R86C (WAS^−/−/WASp R86C) or Y107C (WAS^−/−/WASp Y107C) were pretreated with SMC #34 in comparison to cells treated with the control. Cells that completely lack WASp expression (WAS^−/−) were also treated with the control. Cellular migration was tracked over a 20-min period on ICAM-1/SDF-1α-coated cover glasses, as described in Experimental procedures.
Approximately 1×10^5 lymphocytes were seeded over chambered coverslips (LabTek) pre-coated with 6 μg/ml ICAM-1 and 2 μg/ml SDF-1α. Cells were incubated at 37° C., 5% CO2 and DIC images were acquired with the Zeiss Observer Z1 inverted microscope every 5 s for 20 min under a 20× objective lens using Zen software. The random movement (Displacement and velocity) of the cells was automatically tracked and analyzed using TrackMate plugin of ImageJ software. An individual trace was assigned to each of the analyzed cells.

With `CC(=O)N[C@H]1C[C@@H](c2ccc3c(c2)nnn3C)O[C@@H](c2ccc(Cl)cc2)C1` [SMC #6, N-[(2R,4R,6S)-2-(4-chlorophenyl)-6-(1-methylbenzotriazol-5-yl)oxan-4-yl]acetamide] the “WASp degradation in activated platelets” value (WASp; 40 μM, 15 min pre-incubation, vs DMSO control) was “attenuated WASp degradation”.
In the case of `CC1CCCC(C)N1C(=O)CSc1nnc(COc2cccc3cccnc23)o1` (stereo not drawn) [SMC #34, 1-(2,6-dimethylpiperidin-1-yl)-2-[[5-(quinolin-8-yloxymethyl)-1,3,4-oxadiazol-2-yl]sulfanyl]ethanone], the migration (WAS−/− Jurkat T-cells) is reported as “completely restored the migration”.
`CC(C)C[C@@H](C=O)NC(=O)[C@H](CC(C)C)NC(=O)[C@H](CC(C)C)NC(=O)OCc1ccccc1` [MG132] (Cbz-Leu-Leu-Leu-aldehyde) was tested, and the “increase in WASp expression” value (WASp; platelets after 15 min of activation, with vs without proteasome inhibitor (10 μM, 1 h)) was “more than 2 fold”.
